Drawing on US8436012B2, “Imidazopyridin-2-one derivatives” (Daiichi Sankyo Company, Limited, priority 2008, dated 2013), this text covers IC50 and GI50 for eleven molecules.

SMILES strings stand for the structures.

One test addresses T1, human mTOR (Homo sapiens, UniProt P42345).
T1 construct: the portion corresponding to 1362-2549aa at the C terminus of human mTOR; made in house
The test is described as follows: mTOR Kinase Activity Inhibition Test. The settings on record: His-tagged mTOR (1362C), biotinylated peptide substrate, ATP, 3 hours at room temperature, fluorescence resonance energy transfer 665 nm/620 nm; read-out: IC50 value of mTOR enzyme inhibitory activity. It is filed as biochemical. In short, it runs like this: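 Purified His-tagged human mTOR (1362–2549aa, from HEK293) was used with biotinylated peptide (8 μg/mL in enzyme solution) in HEPES pH 7.5 with 20 mM MnCl2. Compounds were diluted in 20 μM ATP solution, and the reaction ran 3 h at RT. Phospho-S6K(Thr389) HTRF was read as the 665/620 nm ratio, and IC50 came from % inhibition versus controls.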

The next test deals with WM-266-4 cells. The test is described as follows: Cell Proliferation Inhibitory Test. The settings on record: Homo sapiens, 72 h, cultured three days with test compound, MTT, read-out: 50% cell proliferation inhibitory activity (GI50 value). In kind it is cell-based. In short, it runs like this: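 Cells cultured overnight, then exposed to serially diluted compound for three days; cell amount read by MTT. GI50 solved from 100×[(T−T0)/(C−T0)]=50, with T0 the value at time of compound addition and C the untreated three-day control.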

T1 sequence (P42345 1362-2549): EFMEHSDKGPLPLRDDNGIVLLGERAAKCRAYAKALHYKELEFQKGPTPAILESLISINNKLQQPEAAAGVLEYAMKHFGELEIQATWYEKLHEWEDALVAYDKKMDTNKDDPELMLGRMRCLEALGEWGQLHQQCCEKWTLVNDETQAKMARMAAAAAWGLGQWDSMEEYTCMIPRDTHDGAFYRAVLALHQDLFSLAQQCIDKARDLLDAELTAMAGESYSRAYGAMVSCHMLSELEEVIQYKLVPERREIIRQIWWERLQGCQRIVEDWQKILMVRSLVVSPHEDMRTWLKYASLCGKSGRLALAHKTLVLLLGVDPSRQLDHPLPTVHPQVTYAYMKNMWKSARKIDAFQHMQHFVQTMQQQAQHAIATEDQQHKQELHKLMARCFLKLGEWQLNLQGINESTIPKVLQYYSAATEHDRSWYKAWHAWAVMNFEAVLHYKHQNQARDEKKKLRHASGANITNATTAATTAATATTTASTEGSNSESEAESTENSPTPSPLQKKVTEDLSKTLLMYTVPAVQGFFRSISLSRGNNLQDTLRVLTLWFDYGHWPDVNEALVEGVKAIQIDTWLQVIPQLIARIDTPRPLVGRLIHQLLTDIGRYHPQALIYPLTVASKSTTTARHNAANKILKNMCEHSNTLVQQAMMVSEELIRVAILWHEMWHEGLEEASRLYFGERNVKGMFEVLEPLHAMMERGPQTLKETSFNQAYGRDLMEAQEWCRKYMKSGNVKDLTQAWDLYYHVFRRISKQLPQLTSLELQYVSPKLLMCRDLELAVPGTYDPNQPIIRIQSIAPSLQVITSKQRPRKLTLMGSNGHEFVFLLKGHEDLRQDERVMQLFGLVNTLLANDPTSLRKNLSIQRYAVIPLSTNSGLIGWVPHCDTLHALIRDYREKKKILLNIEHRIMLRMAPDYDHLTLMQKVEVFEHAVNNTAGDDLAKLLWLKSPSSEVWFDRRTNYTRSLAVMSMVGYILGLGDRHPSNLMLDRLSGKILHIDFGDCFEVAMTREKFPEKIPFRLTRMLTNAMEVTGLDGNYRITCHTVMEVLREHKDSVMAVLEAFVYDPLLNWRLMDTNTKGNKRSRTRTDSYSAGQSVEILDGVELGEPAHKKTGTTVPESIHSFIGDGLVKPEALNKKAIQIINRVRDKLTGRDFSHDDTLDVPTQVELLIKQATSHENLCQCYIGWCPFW

By IC50 is commonly meant the midpoint of a concentration-inhibition curve. Turning to `Cc1c(-c2cnc3[nH]ccc3c2)cnc2[nH]c(=O)n(CC3CCOCC3)c12` [Example 18, 7-Methyl-6-(1H-pyrrolo[2,3-b]pyridin-5-yl)-1-(tetrahydro-2H-pyran-4-ylmethyl)-1,3-dihydro-2H-imidazo[4,5-b]pyridin-2-one], the concentration for half-maximal inhibition (IC50) at human mTOR is less than 0.05 µM. In addition, the GI50 in the test with WM-266-4 cells was less than 3 µM.

In the case of `Nc1n[nH]c2ccc(-c3cnc4[nH]c(=O)n(CC5CCOCC5)c4c3)cc12` [Example 72, 6-(3-Amino-1H-indazol-5-yl)-1-(tetrahydro-2H-pyran-4-ylmethyl)-1,3-dihydro-2H-imidazo[4,5-b]pyridin-2-one], the IC50 at human mTOR is less than 0.05 µM. Besides, the GI50 in the test with WM-266-4 cells was in the range of 3 to 25 µM.

Regarding `O=c1[nH]c2ncc(-c3cnc4cc[nH]c4c3)cc2n1CC1CCOCC1` [Example 88, 6-(1H-Pyrrolo[3,2-b]pyridin-6-yl)-1-(tetrahydro-2H-pyran-4-ylmethyl)-1,3-dihydro-2H-imidazo[4,5-b]pyridin-2-one], at human mTOR, the IC50 lay in the range of 0.1 to 5 µM. In addition, the GI50 in the test on WM-266-4 cells is less than 3 µM.

As to `CO[C@H]1CC[C@@H](Cn2c(=O)[nH]c3ncc(-c4cnc5[nH]ccc5c4)cc32)CC1` [Example 99, 1-[(cis-4-Methoxycyclohexyl)methyl]-6-(1H-pyrrolo[2,3-b]pyridin-5-yl)-1,3-dihydro-2H-imidazo[4,5-b]pyridin-2-one], the IC50 on human mTOR is less than 0.05 µM. In the test with WM-266-4 cells, the GI50 is less than 3 µM.

As for `N#CC1(Cn2c(=O)[nH]c3ncc(-c4cnc5[nH]ccc5c4)cc32)CCOCC1` [Example 100, 4-{[2-Oxo-6-(1H-pyrrolo[2,3-b]pyridin-5-yl)-2,3-dihydro-1H-imidazo[4,5-b]pyridin-1-yl]methyl}tetrahydro-2H-pyran-4-carbonitrile], the IC50 on human mTOR was less than 0.05 µM. The GI50 in the test on WM-266-4 cells is less than 3 µM.

`Cc1nc2[nH]ccc2cc1-c1cnc2[nH]c(=O)n(C[C@H]3COCCO3)c2c1` [Example 129, 1-[(2S)-1,4-Dioxan-2-ylmethyl]-6-(6-methyl-1H-pyrrolo[2,3-b]pyridin-5-yl)-1,3-dihydro-2H-imidazo[4,5-b]pyridin-2-one]: the IC50 on human mTOR is less than 0.05 µM. In the test with WM-266-4 cells, the GI50 is less than 3 µM.

Regarding `O=c1[nH]c2ncc(-c3cc(F)c4[nH]ccc4c3)cc2n1CC1CCOCC1` [Example 29, 6-(7-Fluoro-1H-indol-5-yl)-1-(tetrahydro-2H-pyran-4-ylmethyl)-1,3-dihydro-2H-imidazo[4,5-b]pyridin-2-one], the IC50 at human mTOR is less than 0.05 µM. Also, the GI50 in the test on WM-266-4 cells was less than 3 µM.

Regarding `CS(=O)(=O)N1CCC(Cn2c(=O)[nH]c3ncc(-c4cnc5[nH]ccc5c4)cc32)CC1` [Example 26, 1-{[1-(Methanesulfonyl)piperidin-4-yl]methyl}-6-(1H-pyrrolo[2,3-b]pyridin-5-yl)-1,3-dihydro-2H-imidazo[4,5-b]pyridin-2-one], on human mTOR, the IC50 is less than 0.05 µM. Also, the GI50 in the test on WM-266-4 cells is less than 3 µM.

Regarding `O=C1COC(Cn2c(=O)[nH]c3ncc(-c4cnc5[nH]ccc5c4)cc32)CN1` (stereo not shown) [Example 110, 1-[(5-Oxomorpholin-2-yl)methyl]-6-(1H-pyrrolo[2,3-b]pyridin-5-yl)-1,3-dihydro-2H-imidazo[4,5-b]pyridin-2-one], the IC50 on human mTOR is less than 0.05 µM. For the same molecule, the GI50 in the test with WM-266-4 cells lay within 3 to 25 µM.

Consider `C[C@H]1COCCN1CCn1c(=O)[nH]c2ncc(-c3cnc4[nH]ccc4c3)cc21` [Example 54, 1-{2-[(35)-3-Methylmorpholin-4-yl]ethyl}-6-(1H-pyrrolo[2,3-b]pyridin-5-yl)-1,3-dihydro-2H-imidazo[4,5-b]pyridin-2-one], for which the IC50 on human mTOR was less than 0.05 µM. Further, the GI50 in the test on WM-266-4 cells is less than 3 µM.

For the molecule `O=c1[nH]c2ncc(-c3cnc4[nH]cc(F)c4c3)cc2n1CC1CCOCC1` [Example 96, 6-(3-Fluoro-1H-pyrrolo[2,3-b]pyridin-5-yl)-1-(tetrahydro-2H-pyran-4-ylmethyl)-1,3-dihydro-2H-imidazo[4,5-b]pyridin-2-one], the IC50 at human mTOR is less than 0.05 µM. In addition, the GI50 in the test with WM-266-4 cells is less than 3 µM.
